In PMC11484942, “Rumicidins are a family of mammalian host-defense peptides plugging the 70S ribosome exit tunnel” (Nature Communications, 2024):
Ends that are not written are not given here.

Legend:
[1] = tested on: E. coli 1057 R2 (rpoS^Q3stop, macB^N470D); conditions: MHB + 0.9% NaCl
Experimental: Minimum inhibitory concentrations (MIC) were determined by broth microdilution assay based on Clinical and Laboratory Standards Institute (CLSI) guidelines using BSA in the growth medium to minimize AMP nonspecific adsorption. Bacterial test cultures were grown in the Mueller-Hinton broth (MHB, Sigma) at 37 °C to mid-log phase and then diluted with the 2× MH medium supplemented with 1.8% NaCl (or without salt) so that to reach a final cell concentration of 10^6 CFU/mL. 50 µL of the obtained bacterial suspension were added to aliquots of 50 µL of the peptide solutions serially diluted with sterilized 0.1% bovine serum albumin (BSA) in 96-well flat-bottom polystyrene microplates (Eppendorf #0030730011). […] To verify MIC values, the respiratory activity of the bacteria was determined. Briefly, 5 µL of 0.5 mg/mL resazurin (Sigma) was added to the wells after 24 h (or after 48 h for M. smegmatis) of incubation, and the plate was incubated for additional 3 h. In some cases, MICs were determined in the Lysogeny Broth (LB) or Middlebrook 7H9 medium. The reduction of resazurin to resorufin was recorded. […] The results were expressed as the median values determined based on at least three independent experiments performed in triplicate.
Resistance induction experiments were performed using the previously described method. This approach allows for monitoring MIC values after each transfer. Briefly, on the first day, the overnight culture of the wild-type bacteria was diluted with the 2× MHB supplemented with 1.8% NaCl (or without salt) to reach a final cell concentration of 10^6 CFU/mL. 50 µL of the obtained bacterial suspension were added to aliquots of 50 µL of the peptide solutions serially diluted with the sterilized 0.1% BSA in 96-well flat-bottom polystyrene microplates. After incubation for 20 ± 2 h at 37 °C and 950 rpm, MICs were determined as described above. For each subsequent daily transfer, 2–4 μL of the inoculum taken from the first well containing a sub-inhibitory drug concentration was diluted with 2 mL of the fresh 2× MHB supplemented with 1.8% NaCl (or without salt). […] Multiple repeated passages in the presence of antimicrobial agents were performed for each bacterial strain during the experiment. Bacteria that grew at the highest concentrations of AMPs on the final day were passaged further 3 times on drug-free agar plates before determining the final MIC value.

[2] = tested on: E. coli 1057 WT; test: microbe, parasite or virus in culture; assay type: cell-based, Escherichia coli; conditions: MHB + 0.9% NaCl
[3] = tested on: E. coli BW25113; test: MIC broth microdilution; assay type: cell-based, Escherichia coli; conditions: for Minimum inhibitory concentration MHB + 0.9% NaCl: Mueller-Hinton broth + 0.9% NaCl; for Minimum inhibitory concentration MHB + 0.9% NaCl / Minimum inhibitory concentration MHB: 24 h 37 °C, median of ≥3 experiments; for Minimum inhibitory concentration MHB: Mueller-Hinton broth without salt; for fold change of MIC vs wild-type rumicidin-1: N-terminal shortening
Experimental: (§1) The reduction of resazurin to resorufin was recorded.

[4] = tested on: E. coli BL21 (DE3) Star cell extract; test: Cell-free protein synthesis (coupled transcription/translation) of EGFP; assay type: biochemical, Escherichia coli; conditions: minimum concentration that provides >90% inhibition of the EGFP synthesis in the CFPS system
Experimental: To investigate the effects of AMPs and antibiotics on the coupled transcription/translation process, the test compounds were added to a cell-free protein synthesis (CFPS) reaction mix with a plasmid encoding enhanced green fluorescent protein (EGFP) variant (F64L, S65T, Q80R, F99S, M153T, and V163A) under control of the T7 promoter. The cell lysate was prepared using the E. coli BL21 Star (DE3) overexpressed T7 RNA polymerase as described previously. The reaction mix consisted of the following components: 1.2 mM ATP, 0.8 mM UTP, 0.8 mM GTP, 0.8 mM CTP, 2 mM of each of 20 proteinogenic amino acids, 1.5 mM spermidine, 1 mM putrescine dihydrochloride, 0.06647 mM calcium folinate, […] tRNA from the E. coli MRE 600 strain, 0.33 mM NAD, 120 mM HEPES-KOH (pH 8.0), 10 mM ammonium glutamate, 175 mM potassium glutamate, 60 mM glucose, 15 mM magnesium glutamate, 2% PEG 8000, 25% E. coli BL21 Star (DE3) cell lysate, 1 ng/ml plasmid DNA. The reaction volume was 50 µL. The peptides were dissolved in PBS with the addition of 0.1% BSA. Erythromycin was used in the positive control reactions. The fluorescence of the sample without inhibitor was set as the 100% value. The reaction proceeded for 2 h in 96-well v-bottom black polystyrene microplates (Eppendorf #0030601904) in a plate shaker (30 °C, 1000 rpm). The fluorescence of the synthesized EGFP was measured with the microplate reader AF2200 (λEx = 488 nm, λEm = 510 nm; Eppendorf). The experimental data were obtained from at least two independent experiments performed in triplicate. Non-linear regression curves were generated using GraphPad Prism v.8.0.1 (GraphPad Software Inc.).

[5] = tested on: S. aureus ATCC 29213; assay type: cell-based, Staphylococcus aureus; conditions: ATCC 29213, 24 h
Experimental: as §1

[6] = tested on: Mycobacterium smegmatis mc(2)155; assay type: cell-based; conditions: Mycobacterium mc(2)155, 24 h
Experimental: as §1

[7] = tested on: HaCaT (keratinocytes); test: MTT cytotoxicity; assay type: cell-based, human; conditions: mean
Experimental: (§2) Hemolytic activity of the peptides was tested against the fresh suspension of human red blood cells (hRBC) using the hemoglobin release assay as described previously. Two experiments were performed with the hRBC from blood samples collected from healthy donors by certified medical personnel upon informed written consent. All procedures were approved by the Ethics Committee of the Institute of Experimental Medicine (protocol 1/20 of 2/27/2020) and comply with the ethical principles of the Declaration of Helsinki. The quantitative data were represented as average means with standard deviations. The colorimetric 3-(4,5-dimethylthiazol-2-yl)-2,5-diphenyltetrazolium bromide (MTT) dye reduction assay was used to determine cytotoxicity of the peptides against human keratinocyte cell line (HaCaT) and transformed human embryonic kidney cells (HEK293T). Both cell lines were purchased from American Type Culture Collection (ATCC). 10^4 cells per well in Dulbecco’s modified Eagle’s medium (DMEM/F12) supplemented with 10% fetal bovine serum (FBS, Invitrogen) were placed into 96-well plates and then cultured in the CO2-incubator (5% CO2, 37 °C). After the media were removed, the peptides were dissolved in 100 µL of the same medium and added to cell cultures at different final concentrations. 20 h later, 20 μL of MTT (5 mg/mL, Sigma) was added to each well, and the plates were incubated for 4 h at 37 °C. Then, the media were discarded and 100 µL DMSO-isopropanol mixture at a ratio of 1:1 (v/v) was added to each well to dissolve the crystallized formazan. The absorbance at 570 nm was measured by a microplate reader AF2200 (Eppendorf). An optical density in the wells containing cells cultured without the peptides was assumed to represent 100% cell viability. Two independent experiments were performed for each peptide.

[8] = tested on: HEK293T (transformed embryonic kidney cells); test: MTT cytotoxicity; assay type: cell-based, human; conditions: mean
Experimental: as §2

RRLRPRRPRLPRPRPRPRPRPR [mini-ChBac7.5Nα]
MIC [1]: > 32 µM

[H]/N=C(/N)N[C@H]1[C@H](O)[C@@H](O)[C@H](O[C@@H]2O[C@@H](C)[C@](O)(C=O)[C@H]2O[C@@H]2O[C@@H](CO)[C@H](O)[C@@H](O)[C@@H]2NC)[C@@H](N/C(N)=N\[H])[C@@H]1O [Streptomycin]
MIC ([2]; Escherichia coli, 1057WT, 24 h): 4 µM

CC1(C)S[C@@H]2[C@H](NC(=O)[C@H](N)c3ccccc3)C(=O)N2[C@H]1C(=O)O [Ampicillin]
MIC ([2]; Escherichia coli, 1057WT, 24 h): > 128 µM

CCC[C@@H]1C[C@@H](C(=O)N[C@@H]([C@H]2O[C@H](SC)[C@H](O)[C@@H](O)[C@H]2O)[C@H](C)Cl)N(C)C1 [Clindamycin]
MIC ([2]; Escherichia coli, 1057WT, 24 h): 128 µM

RARRPRPPKPRPPHRP [Rum-1[1-16]]
Minimum inhibitory concentration MHB + 0.9% NaCl [3]: > 256 µM | Minimum inhibitory concentration MHB [3]: 256 µM

RPRPRPRPWFPPRFP [Rum-1[15-29]]
Protein synthesis inhibition [4]: 256 µM | Minimum inhibitory concentration MHB + 0.9% NaCl [3]: > 256 µM | Minimum inhibitory concentration MHB [3]: 32 µM

CN[C@@H]1[C@H](O)[C@H](NC)[C@H]2O[C@@]3(O)C(=O)C[C@@H](C)O[C@H]3O[C@@H]2[C@H]1O [Spectinomycin]
MIC ([2]; Escherichia coli, 1057WT, 24 h): 64 µM

PHRPRPRPRPWFPPRFP [Rum-1[13-29]]
Protein synthesis inhibition [4]: 64 µM | Minimum inhibitory concentration MHB + 0.9% NaCl [3]: > 256 µM | Minimum inhibitory concentration MHB [3]: 32 µM

CO[C@H]1/C=C/O[C@@]2(C)Oc3c(C)c(O)c4c(O)c(c(/C=N/N5CCN(C)CC5)c(O)c4c3C2=O)NC(=O)/C(C)=C\C=C\[C@H](C)[C@H](O)[C@@H](C)[C@@H](O)[C@@H](C)[C@H](OC(C)=O)[C@@H]1C [Rifampicin]
MIC ([2]; Escherichia coli, 1057WT, 24 h): 32 µM

CO/N=C(\C(=O)N[C@@H]1C(=O)N2C(C(=O)O)=C(CSc3nc(=O)c(=O)[nH]n3C)CS[C@H]12)c1csc(N)n1 [Ceftriaxone]
MIC ([2]; Escherichia coli, 1057WT, 24 h): 128 µM

RPRPPKPRPPHRPRPRPRPWFPPRFP [Rum-1[4-29]]
Protein synthesis inhibition [4]: 4 µM | Minimum inhibitory concentration MHB + 0.9% NaCl [3]: 16 µM | Minimum inhibitory concentration MHB [3]: 4 µM | fold change of MIC vs wild-type rumicidin-1 [3]: two-fold

RARRPRPPKPRPPHRPRPRPRP [Rum-1[1-22]]
Minimum inhibitory concentration MHB + 0.9% NaCl [3]: 256 µM | Minimum inhibitory concentration MHB [3]: 16 µM

RPPHRPRPRPRPWFPPRFP [Rum-1[11-29]]
Protein synthesis inhibition [4]: 32 µM | Minimum inhibitory concentration MHB + 0.9% NaCl [3]: 64 µM | Minimum inhibitory concentration MHB [3]: 8 µM | fold change of MIC vs wild-type rumicidin-1 [3]: ≥ 4 fold

CN(C)[C@@H]1C(O)=C(C(N)=O)C(=O)[C@@]2(O)C(O)=C3C(=O)c4c(O)cccc4[C@@](C)(O)[C@H]3C[C@@H]12 [Tetracycline]
MIC ([2]; Escherichia coli, 1057WT, 24 h): 4 µM

RDRRRRPPRPRPPHRPRPRPLPWFPPRFP [Rumicidin-2]
MIC S. aureus ATCC 29213 [5]: > 32 µM | Minimum inhibitory concentration (MIC) [6]: 1 µM | MIC [1]: > 64 µM

CC[C@H](C)[C@H](NC(=O)CN)C(=O)NCC(=O)N[C@@H](C)C(=O)N[C@H](C(=O)N[C@@H](CC(C)C)C(=O)N[C@@H](CCCCN)C(=O)N[C@H](C(=O)N[C@@H](CC(C)C)C(=O)N[C@H](C(=O)N[C@H](C(=O)NCC(=O)N[C@@H](CC(C)C)C(=O)N1CCC[C@H]1C(=O)N[C@@H](C)C(=O)N[C@@H](CC(C)C)C(=O)N[C@H](C(=O)N[C@@H](CO)C(=O)N[C@@H](Cc1c[nH]c2ccccc12)C(=O)N[C@H](C(=O)N[C@@H](CCCCN)C(=O)N[C@@H](CCCNC(=N)N)C(=O)N[C@@H](CCCCN)C(=O)N[C@@H](CCCNC(=N)N)C(=O)N[C@@H](CCC(N)=O)C(=O)N[C@@H](CCC(N)=O)C(N)=O)[C@@H](C)CC)[C@@H](C)CC)[C@@H](C)O)[C@@H](C)O)C(C)C)C(C)C [Melittin]
MIC [1]: 16 µM | MIC [2]: 8 µM | HaCaT cell viability ([7]; 0.25 µM): 102.196% | HaCaT cell viability ([7]; 0.5 µM): 104.998% | HaCaT cell viability ([7]; 1 µM): 106.041% | HaCaT cell viability ([7]; 2 µM): 106.484% | HaCaT cell viability ([7]; 4 µM): 67.714% | HaCaT cell viability ([7]; 8 µM): 4.039% | HaCaT cell viability ([7]; 16 µM): 2.958% | HaCaT cell viability ([7]; 32 µM): 4.046% | HEK293T cell viability ([8]; 0.25 µM): 101.366% | HEK293T cell viability ([8]; 0.5 µM): 102.416% | HEK293T cell viability ([8]; 1 µM): 98.73% | HEK293T cell viability ([8]; 2 µM): 27.546% | HEK293T cell viability ([8]; 4 µM): 9.889% | HEK293T cell viability ([8]; 8 µM): 9.248% | HEK293T cell viability ([8]; 16 µM): 9.026%

O=C(N[C@H](CO)[C@H](O)c1ccc([N+](=O)[O-])cc1)C(Cl)Cl [Chloramphenicol]
MIC ([2]; Escherichia coli, 1057WT, 24 h): 16 µM

NC[C@H]1O[C@H](O[C@H]2[C@H](O)[C@@H](O[C@H]3O[C@H](CO)[C@@H](O)[C@H](N)[C@H]3O)[C@H](N)C[C@@H]2N)[C@H](O)[C@@H](O)[C@@H]1O [Kanamycin]
MIC [1]: 8 µM | MIC [2]: 8 µM

Gentamycin
MIC [1]: 2 µM | MIC [2]: 2 µM

RGGRLCYCRRRFCVCVGR (Protegrin-1; UniProt P32194 131-148, looked up) [β-hairpin AMP; recombinant]
MIC [1]: 0.25 µM | MIC [2]: 0.25 µM

RPPKPRPPHRPRPRPRPWFPPRFP [Rum-1[6-29]]
Protein synthesis inhibition [4]: 4 µM | Minimum inhibitory concentration MHB + 0.9% NaCl [3]: 16 to 32 µM | Minimum inhibitory concentration MHB [3]: 4 µM | fold change of MIC vs wild-type rumicidin-1 [3]: two-fold
